Reference: the supplement of paper PMC9436093

Experiments:
Experiment in all cases: cell viability relative to DMSO (100%) and bortezomib (0%) controls; higher = more viable / less sensitive
Conditions in all cases: 72 h
HAP1 wildtype = system: HAP1 wildtype
Method: (§1)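 HAP1 cells (wildtype, HDAC1/2/3 catalytically inactive H>A mutant lines in wildtype or knockout background, HDAC3 KO, or wildtype pre-treated 6 h with 1 uM MS-275 or JQ12) were seeded onto compound-containing 384-well plates with an 8-point 1:3 dose series. ATP was read by CellTiter-Glo after 72 h. Viability is normalised to plate DMSO wells (100%) and bortezomib positive-control wells (0%) after outlier removal. Duplicate screen.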

[1] = system: HAP1 HDAC3 KO + HDAC3 H135A transgene
Method: as §1

[2] = system: HAP1 WT + HDAC2 H142A transgene
Method: as §1

[3] = system: HAP1 WT + HDAC1 H141A transgene
Method: as §1

[4] = system: HAP1 HDAC1 KO + HDAC1 H141A transgene
Method: as §1

HAP1 HDAC3 KO = system: HAP1 HDAC3 KO
Method: as §1

[5] = system: HAP1 WT + HDAC3 H135A transgene
Method: as §1

[6] = system: HAP1 HDAC2 KO + HDAC2 H142A transgene
Method: as §1

[7] = system: HAP1 wildtype + JQ12 1 uM (6 h pretreatment)
Method: as §1

[8] = system: HAP1 wildtype + MS-275 1 uM (6 h pretreatment)
Method: as §1

Cn1cc(-c2ccc(S(=O)(=O)n3ccc(/C=C/C(=O)Nc4ccccc4N)c3)cc2)cn1 [4SC-202]
cell viability [%]
Conditions	HAP1 HDAC3 KO	HAP1 wildtype	[1]	[2]	[3]	[4]	[5]	[6]	[7]	[8]
0.0123 µM	120	105	130	141	125	137	140	125	123	168
0.037 µM	95.7	88.7	85.68	78.14	85.5	106	89.7	108	113	112
0.111111111 µM	127	120	109	135	110	109	128	157	133	121
0.333333333 µM	122.3	98.9	104	117	117	111	133	93.36	98.5	123
1 µM	11.2	22.3	-3.64	-0.0563	-2.58	7.79	6.41	82.3	10.9	3.53
3 µM	-10.7	-0.806	-11	-10.7	-21.1	-53.5	-13.8	-4.75	-3.08	-1.84
9 µM	-10.9	-6.67	-9.81	-11.2	-15.7	-23.1	-10.1	-2.31	-6.3	-6.4
27 µM	-5.87	2.64	-4.35	-5.99	-7.2	14.2	-6.44	-4.84	-3.68	0.166

COc1cc(Nc2ncc3c(n2)-c2ccc(Cl)cc2C(c2c(F)cccc2OC)=NC3)ccc1C(=O)O [Alisertib]
cell viability [%]
Conditions	HAP1 HDAC3 KO	HAP1 wildtype	[1]	[2]	[3]	[4]	[5]	[6]	[7]	[8]
0.00617 µM	94.9	103	103	86.2	101	95.2	92.9	103	79.6	107
0.0185 µM	131	136	121	115	95.7	122	103	92.1	100	128
0.0556 µM	117	100	112	99.5	95.2	109	123	103	95.3	108
0.166666667 µM	70	110	70.2	62.6	71.2	52.1	147	31.8	34.2	43.2
0.5 µM	111	96.5	79.4	49.8	37.1	53.3	105	51	51.9	72.44
1.5 µM	114	83.2	82.3	21.9	15.1	38.4	101	54.5	51.7	61.6
4.5 µM	103	74.2	71.6	17.5	22.1	33.1	90.6	36.2	54.4	53.2
13.5 µM	116	73.4	89	12.7	2.6	19.6	108	21.8	52	46.8

CNC(=O)c1ccccc1Sc1ccc2c(/C=C/c3ccccn3)n[nH]c2c1 [Axitinib]
cell viability [%]
Conditions	HAP1 HDAC3 KO	HAP1 wildtype	[1]	[2]	[3]	[4]	[5]	[6]	[7]	[8]
0.0123 µM	120	119	121	130	105	112	114	113	106	114
0.037 µM	99.1	95.8	87	82.1	90.6	94.3	90.2	94	76.9	92.3
0.111111111 µM	87.1	121	94	88.7	93.5	93	96.9	86.6	82.1	93.5
0.333333333 µM	102	102	101	101	94.8	84.5	121	107	109	101
1 µM	172	115	129	140	121	155	147	137	102	113
3 µM	48.9	72	34.8	46.4	21.8	54	88.11	23.4	57.83	67.8
9 µM	79.4	62	36.3	16.3	5.34	26.6	101	-0.112	48.6	52.5
27 µM	50.5	92.3	50.1	46.8	25.9	36	102	27.5	72.2	65.8

Nc1ncn([C@H]2C[C@H](O)[C@@H](CO)O2)c(=O)n1 [decitabine]
cell viability [%]
Conditions	HAP1 HDAC3 KO	HAP1 wildtype	[1]	[2]	[3]	[4]	[5]	[6]	[7]	[8]
0.0309 µM	96.5	104	100	102	95.3	106	105	105.4	92.9	107
0.0926 µM	103	96.6	111	109	96.2	117	117	104	98	82.5
0.277777778 µM	125	110	115	80.5	68.1	93.4	116	89.47	72.8	71.3
0.833333333 µM	155	141	148	44.3	27.2	51.5	153	37.5	50.9	40.43
2.5 µM	144	115	148	5.61	-11.5	24.3	119.46	10.8	15.9	9.68
7.5 µM	112	60.8	96.2	4.31	0.523	0.764	49.5	5.27	1.97	9.13
22.5 µM	123	50.1	114	0.159	-11.1	5.07	58.5	-5.41	3.44	2.79
67.5 µM	147	47.2	108	7.07	1.73	19.6	61.2	9.97	1.41	10.8
